These results are taken from US8304216B2, “Method for production of erythro-or threo-2-amino-3-hydroxypropionic acid ester, novel carbonyl reductase, gene for the reductase, vector, transformant, and method for production of optically active alcohol using those” (Kaneka Corporation, priority 2006, dated 2012).

This assay deals with purified polypeptide (carbonyl reductase) from the Brevundimonas diminuta NBRC 12697 strain. Nature of the assay: Substrate specificity of purified polypeptide: reducing activity against carbonyl compounds (NADH decrease at 340 nm). Format: biochemical. Particulars: substrate 2 mM, NADH 0.167 mM, 100 mM phosphate buffer pH 6.5, 0.4% (v/v) DMSO, 30° C., 3 minutes; activity against ethyl N-Boc-2-amino-3-cyclohexyl-3-oxopropionate taken as 100%.

Consider `O=Cc1ccccc1Cl` [o-chlorobenzaldehyde], for which the relative activity came to 1219%.

For the compound `CCOC(=O)C(=O)c1ccccc1` [Ethyl benzoylformate], the relative activity turned out to be 12198%.

For `CC(=O)c1cccc(Cl)c1` [m-chloroacetophenone], the relative activity was determined as 4368%.

With `CC(=O)C=O` [methylglyoxal], the relative activity worked out at 248%.

On to `CC(=O)c1ccc(Cl)cc1` [p-chloroacetophenone], for which the relative activity is 534%.

On to `CCCCCC=O` [n-hexylaldehyde], for which the relative activity turned out to be 2160%.

`O=Cc1cccc(Cl)c1` [m-chlorobenzaldehyde]: the relative activity came out at 2138%.

With `O=C(CCl)c1ccccc1` [2-chloroacetophenone], the relative activity is 12789%.

`O=C1CCSC1` [tetrahydrothiophen-3-one]: the relative activity is on record as 156%.

Regarding `CCOC(=O)C(C)C(C)=O` (centres unmarked) [Ethyl 2-methylacetoacetate], the relative activity amounted to 425%.

As to `CC(=O)c1ccccc1Cl` [o-chloroacetophenone], the relative activity is given as 350%.

As to `CCOC(=O)C(NC(=O)OC(C)(C)C)C(=O)C1CCCCC1` (centres unmarked) [Ethyl N-Boc-2-amino-3-cyclohexyl-3-oxopropionate], the relative activity came out at 100%.

`CC(C=O)c1ccccc1` (centres unmarked) [2-phenylpropionaldehyde]: the relative activity is recorded as 621%.

As to `COC(=O)C(C)=O` [Methyl pyruvate], the relative activity stood at 5625%.

For the compound `O=C(CCl)c1cccc(Cl)c1` [2,3′-dichloroacetophenone], the relative activity stood at 12719%.

Consider `CCOC(=O)CC(=O)CCl` [Ethyl 4-chloroacetoacetate], for which the relative activity was determined as 533470%.

Consider `O=Cc1ccc(Cl)cc1` [p-chlorobenzaldehyde], for which the relative activity is 445%.

As for `COC(=O)CC(C)=O` [Methyl acetoacetate], the relative activity was determined as 1095%.

On to `CC(=O)C(C)=O` [diacetyl], for which the relative activity amounted to 4830%.

As for `CC(=O)c1ccco1` [2-acetylfuran], the relative activity was found to be 164%.

In the case of `CCOC(=O)C(Cl)C(C)=O` (centres unmarked) [Ethyl 2-chloroacetoacetate], the relative activity stood at 7264%.

Regarding `CCCCC(C)=O` [2-hexanone], the relative activity was found to be 1540%.

For the compound `CC(=O)c1ccncc1` [4-acetylpyrridine], the relative activity is recorded as 1149%.

Consider `CC12CCC(C(=O)C1=O)C2(C)C` (centres unmarked) [camphorquinone], for which the relative activity is recorded as 4737%.

For `CCCC(=O)C(=O)OCC` [Ethyl 2-oxopentanoate], the relative activity came to 6046%.

For `CC(=O)CC(C)=O` [acetylacetone], the relative activity worked out at 273%.

In the case of `CCOC(=O)C(Cl)C(=O)c1ccccc1` (centres unmarked) [Ethyl 2-chloro-3-oxo-3-phenylpropionate], the relative activity stood at 1139%.

Turning to `CCOC(=O)C1CCCC1=O` (centres unmarked) [Ethyl 2-oxocyclopentanecarboxylate], the relative activity was found to be 199%.

On to `O=C(c1ccccc1)C(F)(F)F` [2,2,2-trifluoroacetophenone], for which the relative activity is listed as 42277%.
